These results are taken from article PMC11921344, “Antimicrobial peptide DiPGLa-H exhibits the most outstanding anti-infective activity among the PGLa variants based on a systematic comparison” (Applied and Environmental Microbiology, 2025).

The test system of assay [1] is P. aeruginosa ATCC27853. It counts as cell-based, Pseudomonas aeruginosa. On the procedure:
(§1) The antibacterial activity was evaluated using a standard MIC and MBC assay according to the National Committee for Clinical Laboratory Standards (NCCLS). MIC, MBC assay, and time-kill curves for the optimal peptide are provided in the Supplementary Materials.
(§2) Antimicrobial Activity Assays. The antibacterial activity of the peptides was determined using a method designed from the National Committee for Clinical Laboratory Standards (NCCLS) in the United States. All the strains used in the experiment are preserved in the laboratory. Briefly, log phase bacterial cells were diluted in MHB to a final concentration of 0.5-1x10^5 CFU/mL. Subsequently, 50μL of different concentrations of polypeptides were incubated with 50 μL of bacterial solution in sterile 96-well plates. In the minimum inhibitory concentration (MIC) assay, the plate was incubated at 37°C for 24 h, and the minimum inhibitory concentration (MIC) was determined by the absorbance at 492 nm of the microplate reader, and the minimum inhibitory concentration (MIC) inhibited 95% of bacteria grow. Determination of minimum bactericidal concentration: the plate was incubated at 37°C for 4 hours, 50 μL of the mixture was taken out of each well, diluted with an appropriate amount of PBS, smeared on the agar plate, and cultured overnight. Colonies were counted and the initial CFU/well was retrospectively calculated the following day. The lowest concentration of peptide that kills 99.9% of bacterial cells is the minimum bactericidal concentration (µM), Each test was replicated at least 3 times.

Assay [2] deals with Gram-negative bacteria. Description: Geometric mean MIC and therapeutic index, Gram-negative. As to conditions: geometric mean of the peptide MICs against Gram-negative strains. The format is cell-based. On the procedure: as §1, §2
Assay [3] concerns E. coli K88 inner membrane. As to the kind of experiment: Inner membrane integrity assay (PI). It counts as cell-based, Escherichia coli. As to conditions: 4 µM peptide, 30 min. On the procedure: The outer and inner membrane integrity of bacterial cells treated with peptides was assessed using NPN and PI staining, respectively. Full details are provided in the Supplementary Materials.
Inner membrane integrity assay. E. coli K88 cells were washed and resuspended in 0.01 mol l−1 of PBS (pH 7.4) to obtain an OD600 of 0.5, followed by the addition of 10 nmol l−1 of PI (Thermo Fisher Scientific, catalogue no. P1304MP) in the presence of […]. After incubation for 30 min, fluorescence was measured with the excitation wavelength at 535 nm and emission wavelength at 615 nm.

The subject of assay [4] is S. aureus Mu50. The format is cell-based, Staphylococcus aureus MRSA. Conditions: for MIC S. aureus Mu50: Mu50, 2 h. As for the experimental part: To assess the stability of the peptides in physiological conditions, the peptides were incubated with E. coli K88 and S. aureus Mu50 in the presence of salts (150 mM NaCl, 4.5 mM KCl, 6 µM NH4Cl, 8 µM ZnCl2, 1 mM MgCl2, 4 µM FeCl3, and 2.5 µM CaCl2) in accordance with a previously reported protocol. To determine the thermal stability of the peptides, the peptides were pretreated at 100°C for 30 min, 60 min, and 90 min and cooled on ice for 10 min. The effect of acid and base on the antimicrobial activity was measured by treating the peptides for 2 h at pH of 2, 4, 10, and 12 in 10 mM sodium phosphate buffer adjusted with HCl or NaOH.

Assay [5] relates to A. baumannii ATCC19606 biofilm. As to the kind of experiment: Anti-biofilm assay (crystal violet). It counts as cell-based, Acinetobacter baumannii. On the procedure:
(§3) The anti-biofilm activity of DiPGLa-H was evaluated using a crystal violet staining method. Briefly, 100 µL of bacterial suspension at 1 × 10^6 CFU/mL was incubated with DiPGLa-H (0–64 µM) for 48 h. The biofilm formed was stained with 1% crystal violet, and the absorbance was measured at 595 nm. The biofilm formation and mature biofilm removal assays were conducted. For biofilm formation, a bacterial suspension was incubated with DiPGLa-H, and biofilm content was quantified. To assess mature biofilm removal, pre-formed biofilms were treated with DiPGLa-H for 24 h, followed by quantification. Detailed Protocol in Supplementary Materials.
(§4) To test the ability of DiPGLa-H to […] on the test bacteria, a single colony was inoculated in MHB medium and incubated overnight at 37 °C and 180 r/min, and 1% of the bacterial suspension was taken and continued to be amplified and incubated for 2 h. […] The biofilm content was analyzed by measuring the absorbance value at 595 nm, and anhydrous ethanol was used as a blank control. […]

The subject of assay [6] is P. aeruginosa ATCC27853 biofilm. Description: Anti-biofilm assay (crystal violet). The format is cell-based, Pseudomonas aeruginosa. As for the experimental part: as §3, §4
Assay [7] deals with E. coli K88. Description: LPS binding assay (MIC with exogenous LPS). As to conditions: increasing addition of external LPS, 37°C 24 h, 492 nm. The format is cell-based, Escherichia coli. As for the experimental part: LPS (Sigma, USA) and LTA (Sigma, USA) were dissolved in water at a concentration of 5 mg/mL. Fifty microliters of DiPGLa-H with a concentration gradient of 1–64 μM and 50 µL of LPS or LTA master mix with different concentration gradients were added to the 96-well plate in 2-fold dilution, and finally, 100 µL of diluted E. coli K88 or S. aureus Mu50 was added, incubated at 37°C in a constant temperature incubator for 24 h. The MIC was determined by absorbance at 492 nm using an enzyme marker as the lowest peptide concentration that inhibited 95% of the bacterial growth.

Where [8] appears, read: 1×10^6 CFU/mL, DiPGLa-H 0-64 µM, 48 h, crystal violet, 595 nm.

Like-named read-outs stand apart in the source and are kept apart here. Where no end group is shown, it is not given here. Where only a bound is given, the exact number is not on record here.

For the substance “KIAKVALKALKIAKVALKAL-NH2 (C-terminus assumed) [DiPGLa-H]”, in assay [1] (ATCC27853, 4 h), the MBC P. aeruginosa ATCC27853 stood at 2 µM. The substance also had an MIC P. aeruginosa ATCC27853 in assay [1] (ATCC27853, 24 h) of 2 µM. In addition, the “GMMIC Gram-negative” value in assay [2] is 2.82 µM. The “inner membrane damage (PI)” value in assay [3] worked out at 267%. The “MIC S. aureus Mu50” value in assay [4] (pH 2) is greater than 32 µM; in assay [4] (pH 4) it was greater than 32 µM; in assay [4] (pH 10) it was 32 µM; in assay [4] (pH 12) it was 32 µM. Further, the “increase in MIC after high temperature and pH treatments, S. aureus Mu50” value in assay [4] (heat 100°C and pH 2-12 treatments) is no less than 4 fold. The “increase in MIC values by cations, S. aureus Mu50” value in assay [4] (salts of Table S2) is given as “more than fourfold increase”. Besides, the “concentration for effective inhibition of biofilm formation” value in assay [5] (setting [8]) is recorded as “above 4 µM”. For the same substance, the “concentration effectively eradicating biofilms” value in assay [5] (pre-formed biofilm treated with DiPGLa-H 0-64 µM for 24 h) is “above 16 µM”. Also, in assay [6] (setting [8]), the “inhibition of biofilm formation” value is “inhibition at higher concentrations”. The biofilm elimination capacity entry in assay [6] (pre-formed biofilm treated with DiPGLa-H for 24 h, similar concentrations (above 16 µM)) was “less pronounced”. For the same substance, the “reduction of antibacterial activity by external LPS” value in assay [7] turned out to be 16 fold.
